Active and inactive are the calls of the source. The calls are words filed in the database; no cut-off is given here.
Tests used:
[1] = system: L1210; test: Antitumor activity against mouse L1210 cells allografted in ip dosed mouse administered qd on day 1, 5 and 9 relative to control; type: functional
[2] = system: L1210; test: Antitumor activity against mouse L1210 cells allografted in ip dosed mouse; type: functional, organism-based

Row | SMILES | T/C [1] [%] | Activity [2] | Activity [1]
1 | CCSC1=C(N2CC2)C(=O)C(SCC)=C(N2CC2)C1=O | 130 | – | –
2 | CC(=O)NC1=C(Cl)C(=O)C(NC(C)=O)=C(Cl)C1=O | – | inactive | –
3 | CC(=O)NC1=C(N2CC2(C)C)C(=O)C(NC(C)=O)=C(N2CC2(C)C)C1=O | – | inactive | –
4 | CC1(C)CN1C1=C(Br)C(=O)C(N2CC2(C)C)=C(Br)C1=O | – | – | inactive
5 | CC1(C)CN1C1=C(Cl)C(=O)C(N2CC2(C)C)=C(Cl)C1=O | – | – | inactive
6 | CC1CN1C1=C(Br)C(=O)C(N2CC2C)=C(Br)C1=O (stereo not given) | – | – | inactive
7 | CC1CN1C1=C(Cl)C(=O)C(N2CC2C)=C(Cl)C1=O (stereo not given) | – | – | inactive
8 | CCCSC1=C(N2CC2)C(=O)C(SCCC)=C(N2CC2)C1=O | – | inactive | –
9 | CCOC(=N)C1=C(Cl)C(=O)C(C(=N)OCC)=C(Cl)C1=O | – | inactive | –
10 | COC1=C(Br)C(=O)C(OC)=C(Br)C1=O | – | inactive | –
11 | NC1=C(Cl)C(=O)C(N)=C(Cl)C1=O | – | inactive | –
12 | O=C1C(Br)=C(N2CC2)C(=O)C(Br)=C1N1CC1 | – | – | inactive
13 | O=C1C(Cl)=C(Cl)C(=O)C(Cl)=C1Cl | – | inactive | –
14 | O=C1C(Cl)=C(N2CC2)C(=O)C(Cl)=C1N1CC1 | – | inactive | inactive
